Experimental data reported in patent publication US9708314B2, “Heterocyclic amide compound” (NISSAN CHEMICAL INDUSTRIES, LTD., priority 2013, dated 2017).

Assays:
Assay type in all cases: in vivo
[1] = system: Echinochloa oryzacola Vasing.; test: Test Example 1: herbicidal activity, application before weed generation in submerged conditions; conditions: Application herbicide amount 320 g/ha; Seventeenth Table
Method in brief: (§1)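 Alluvial soil in Wagner pots flooded to 4 cm water depth; weed seeds sown and 2.5 leaf stage rice seedlings transplanted. Emulsion diluted in water applied to water surface on sowing day at stated g/ha. Greenhouse 25° C. to 30° C.; effects scored 0–5 by herbicidal ratio after three weeks.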

Monochoria vaginalis = test: as above; conditions: Application herbicide amount 320 g/ha; Seventeenth Table
Method in brief: as §1

Scirpus juncoides = test: as above; conditions: Application herbicide amount 320 g/ha; Seventeenth Table
Method in brief: as §1

[2] = system: transplanted Oryza sativa; test: Test Example 1: effect on crop, application before weed generation in submerged conditions; conditions: Application herbicide amount 320 g/ha; Seventeenth Table
Method in brief: as §1

Abutilon theophrasti = test: Test Example 4: herbicidal effect by application to foliage (diluvial soil, plastic box); conditions: Application herbicide amount 320 g/ha; foliage application
Method in brief: (§2)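 Scores run from 0 (herbicidal ratio ≤5%) to 5 (≥90%, almost fully withered) and were assessed three weeks after foliar spraying. Seedlings had been raised for 14 days at 25-30° C in sterilized diluvial soil before treatment, with the emulsion diluted in water to the stated g/ha dose.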

Alopecurus myosuroides = test: as above; conditions: Application herbicide amount 320 g/ha; foliage application
Method in brief: as §2

Amaranthus retroflexus = test: as above; conditions: Application herbicide amount 320 g/ha; foliage application
Method in brief: as §2

Apera spica-venti. = test: as above; conditions: Application herbicide amount 320 g/ha; foliage application
Method in brief: as §2

Avena fatua = test: as above; conditions: Application herbicide amount 320 g/ha; foliage application
Method in brief: as §2

Chenopodium album = test: as above; conditions: Application herbicide amount 320 g/ha; foliage application
Method in brief: as §2

Digitaria ciliaris = test: as above; conditions: Application herbicide amount 320 g/ha; foliage application
Method in brief: as §2

[3] = system: Echinochloa crus-galli var. crus-galli; test: as above; conditions: Application herbicide amount 320 g/ha; foliage application
Method in brief: as §2

Galium spurium = test: as above; conditions: Application herbicide amount 320 g/ha; foliage application
Method in brief: as §2

Lolium multiflorum Lam. = test: as above; conditions: Application herbicide amount 320 g/ha; foliage application
Method in brief: as §2

Setaria viridis = test: as above; conditions: Application herbicide amount 320 g/ha; foliage application
Method in brief: as §2

Stellaria media = test: as above; conditions: Application herbicide amount 320 g/ha; foliage application
Method in brief: as §2

Veronica persica = test: as above; conditions: Application herbicide amount 320 g/ha; foliage application
Method in brief: as §2

[4] = system: Beta vulgaris ssp. vulgaris; test: Test Example 4: effect on crop by application to foliage (diluvial soil, plastic box); conditions: Application herbicide amount 320 g/ha; foliage application
Method in brief: as §2

Brassica campestris L. = test: as above; conditions: Application herbicide amount 320 g/ha; foliage application
Method in brief: as §2

Glycine max = test: as above; conditions: Application herbicide amount 320 g/ha; foliage application
Method in brief: as §2

Triticum aestivum = test: as above; conditions: Application herbicide amount 320 g/ha; foliage application
Method in brief: as §2

Zea mays = test: as above; conditions: Application herbicide amount 320 g/ha; foliage application
Method in brief: as §2

[5] = system: directly sowed Oryza sativa; test: as above; conditions: Application herbicide amount 320 g/ha; foliage application
Method in brief: as §2

SMILES | A: Echinochloa oryzicola Vasing. (herbicidal effect grade) [1] | C: Monochoria vaginalis (herbicidal effect grade) (Monochoria vaginalis) | B: Scirpus juncoides (herbicidal effect grade) (Scirpus juncoides) | a: transplanted Oryza sativa (effect on crop grade) [2] | M (Abutilon theophrasti) herbicidal effect grade (Abutilon theophrasti) | J (Alopecurus myosuroides) herbicidal effect grade (Alopecurus myosuroides) | N (Amaranthus retroflexus) herbicidal effect grade (Amaranthus retroflexus) | L (Apera spica-venti.) herbicidal effect grade (Apera spica-venti.) | I (Avena fatua) herbicidal effect grade (Avena fatua) | O (Chenopodium album) herbicidal effect grade (Chenopodium album) | F (Digitaria ciliaris) herbicidal effect grade (Digitaria ciliaris) | H (Echinochloa crus-galli var. crus-galli) herbicidal effect grade [3] | Q (Galium spurium) herbicidal effect grade (Galium spurium) | K (Lolium multiflorum Lam.) herbicidal effect grade (Lolium multiflorum Lam.) | G (Setaria viridis) herbicidal effect grade (Setaria viridis) | P (Stellaria media) herbicidal effect grade (Stellaria media) | R (Veronica persica) herbicidal effect grade (Veronica persica) | f (Beta vulgaris ssp. vulgaris) effect on crop grade [4] | g (Brassica campestris L.) effect on crop grade (Brassica campestris L.) | d (Glycine max) effect on crop grade (Glycine max) | further results
COc1ccc(-c2nnc3c(C(=O)Nc4nnco4)ccc(C(F)(F)F)n23)cc1 [1-149] | 5 (Herbicidal ratio of 90% or more (almost completely withered)) | 3 (Herbicidal ratio of 40% or more and less than 70%) | 4 (Herbicidal ratio of 70% or more and less than 90%) | 3 (Herbicidal ratio of 40% or more and less than 70%) | 3 (Herbicidal ratio of 40% or more and less than 70%) | 1 (Herbicidal ratio of 5% or more and less than 20%) | 3 (Herbicidal ratio of 40% or more and less than 70%) | 2 (Herbicidal ratio of 20% or more and less than 40%) | 1 (Herbicidal ratio of 5% or more and less than 20%) | 5 (Herbicidal ratio of 90% or more (almost completely withered)) | 4 (Herbicidal ratio of 70% or more and less than 90%) | 4 (Herbicidal ratio of 70% or more and less than 90%) | 3 (Herbicidal ratio of 40% or more and less than 70%) | 1 (Herbicidal ratio of 5% or more and less than 20%) | 3 (Herbicidal ratio of 40% or more and less than 70%) | 5 (Herbicidal ratio of 90% or more (almost completely withered)) | 5 (Herbicidal ratio of 90% or more (almost completely withered)) | 5 (Herbicidal ratio of 90% or more (almost completely withered)) | 5 (Herbicidal ratio of 90% or more (almost completely withered)) | 3 (Herbicidal ratio of 40% or more and less than 70%) | e (Triticum aestivum) effect on crop grade (Triticum aestivum): 0 (Herbicidal ratio of 5% or less (almost no effect)); c (Zea mays) effect on crop grade (Zea mays): 0 (Herbicidal ratio of 5% or less (almost no effect)); b (directly sowed Oryza sativa) effect on crop grade [5]: 1 (Herbicidal ratio of 5% or more and less than 20%)
O=C(Nc1nnco1)c1ccc(C(F)(F)F)n2c(-c3ccc(Cl)nc3)nnc12 [1-150] | 5 (Herbicidal ratio of 90% or more (almost completely withered)) | 5 (Herbicidal ratio of 90% or more (almost completely withered)) | 5 (Herbicidal ratio of 90% or more (almost completely withered)) | 4 (Herbicidal ratio of 70% or more and less than 90%) | 3 (Herbicidal ratio of 40% or more and less than 70%) | 1 (Herbicidal ratio of 5% or more and less than 20%) | 5 (Herbicidal ratio of 90% or more (almost completely withered)) | 3 (Herbicidal ratio of 40% or more and less than 70%) | 3 (Herbicidal ratio of 40% or more and less than 70%) | 5 (Herbicidal ratio of 90% or more (almost completely withered)) | 4 (Herbicidal ratio of 70% or more and less than 90%) | 5 (Herbicidal ratio of 90% or more (almost completely withered)) | 4 (Herbicidal ratio of 70% or more and less than 90%) | 3 (Herbicidal ratio of 40% or more and less than 70%) | 3 (Herbicidal ratio of 40% or more and less than 70%) | 5 (Herbicidal ratio of 90% or more (almost completely withered)) | 5 (Herbicidal ratio of 90% or more (almost completely withered)) | 5 (Herbicidal ratio of 90% or more (almost completely withered)) | 5 (Herbicidal ratio of 90% or more (almost completely withered)) | 4 (Herbicidal ratio of 70% or more and less than 90%) | e (Triticum aestivum) effect on crop grade (Triticum aestivum): 3 (Herbicidal ratio of 40% or more and less than 70%); c (Zea mays) effect on crop grade (Zea mays): 0 (Herbicidal ratio of 5% or less (almost no effect)); b (directly sowed Oryza sativa) effect on crop grade [5]: 3 (Herbicidal ratio of 40% or more and less than 70%)
COc1ccc(Cc2nnc3c(C(=O)Nc4nnco4)ccc(C(F)(F)F)n23)cc1 [1-151] | 5 (Herbicidal ratio of 90% or more (almost completely withered)) | 3 (Herbicidal ratio of 40% or more and less than 70%) | 5 (Herbicidal ratio of 90% or more (almost completely withered)) | 0 (Herbicidal ratio of 5% or less (almost no effect)) | 3 (Herbicidal ratio of 40% or more and less than 70%) | 1 (Herbicidal ratio of 5% or more and less than 20%) | 5 (Herbicidal ratio of 90% or more (almost completely withered)) | 2 (Herbicidal ratio of 20% or more and less than 40%) | 3 (Herbicidal ratio of 40% or more and less than 70%) | 5 (Herbicidal ratio of 90% or more (almost completely withered)) | 5 (Herbicidal ratio of 90% or more (almost completely withered)) | 5 (Herbicidal ratio of 90% or more (almost completely withered)) | 4 (Herbicidal ratio of 70% or more and less than 90%) | 3 (Herbicidal ratio of 40% or more and less than 70%) | 3 (Herbicidal ratio of 40% or more and less than 70%) | 5 (Herbicidal ratio of 90% or more (almost completely withered)) | 5 (Herbicidal ratio of 90% or more (almost completely withered)) | 5 (Herbicidal ratio of 90% or more (almost completely withered)) | 5 (Herbicidal ratio of 90% or more (almost completely withered)) | 4 (Herbicidal ratio of 70% or more and less than 90%) | e (Triticum aestivum) effect on crop grade (Triticum aestivum): 3 (Herbicidal ratio of 40% or more and less than 70%); c (Zea mays) effect on crop grade (Zea mays): 0 (Herbicidal ratio of 5% or less (almost no effect)); b (directly sowed Oryza sativa) effect on crop grade [5]: 0 (Herbicidal ratio of 5% or less (almost no effect))
C#CCN(C)c1nnc2c(C(=O)Nc3nnc(C)o3)ccc(C(F)(F)F)n12 [1-152] | 5 (Herbicidal ratio of 90% or more (almost completely withered)) | 3 (Herbicidal ratio of 40% or more and less than 70%) | 4 (Herbicidal ratio of 70% or more and less than 90%) | 2 (Herbicidal ratio of 20% or more and less than 40%) | 3 (Herbicidal ratio of 40% or more and less than 70%) | 0 (Herbicidal ratio of 5% or less (almost no effect)) | 4 (Herbicidal ratio of 70% or more and less than 90%) | 1 (Herbicidal ratio of 5% or more and less than 20%) | 2 (Herbicidal ratio of 20% or more and less than 40%) | 5 (Herbicidal ratio of 90% or more (almost completely withered)) | 4 (Herbicidal ratio of 70% or more and less than 90%) | 4 (Herbicidal ratio of 70% or more and less than 90%) | 1 (Herbicidal ratio of 5% or more and less than 20%) | 1 (Herbicidal ratio of 5% or more and less than 20%) | 3 (Herbicidal ratio of 40% or more and less than 70%) | 4 (Herbicidal ratio of 70% or more and less than 90%) | 3 (Herbicidal ratio of 40% or more and less than 70%) | 4 (Herbicidal ratio of 70% or more and less than 90%) | 1 (Herbicidal ratio of 5% or more and less than 20%) | 3 (Herbicidal ratio of 40% or more and less than 70%) | e (Triticum aestivum) effect on crop grade (Triticum aestivum): 0 (Herbicidal ratio of 5% or less (almost no effect)); c (Zea mays) effect on crop grade (Zea mays): 0 (Herbicidal ratio of 5% or less (almost no effect)); b (directly sowed Oryza sativa) effect on crop grade [5]: 0 (Herbicidal ratio of 5% or less (almost no effect))
